The values that follow come from patent US20100081679A1, “DIAMINOPYRIMIDINES AS FUNGICIDES” (Bayer CropScience AG, priority 2007, published 2010).

Marks after values point to notes of the source that are not given here.

The nature of the first series: logP determination via retention times, calibrated with unbranched alkan-2-ones. The format is physicochemical. The following applies: HPLC on reversed-phase C 18, EEC Directive 79/831 Annex V.A8; method *: 40° C., 0.1% aqueous formic acid and acetonitrile, linear gradient 10% to 95% acetonitrile.
On to `CC(=O)Cc1ccc(Nc2ncc(Br)c(NC3CC3)n2)cc1` [compound 565], for which the logP is 1.58*.
As for `CC(=O)Nc1ccc(Nc2ncc(Cl)c(NCC3CC3)n2)cn1` [compound 507], the logP was 0.89*.
Consider `COC(=O)Nc1ccc(Nc2ncc(Cl)c(NC3CC3)n2)c(F)c1` [compound 530], for which the logP was 1.56*.
Same read-out and setting: under `O=C(Nc1cccc(Nc2ncc(Cl)c(NCC3CC3)n2)c1)c1ccccc1` [compound 557] stands 2.21*; under `CC(C)(C)OC(=O)Nc1ccc(Nc2ncc(Cl)c(NCC3CC3)n2)cc1` [compound 522], 2.18*; under `CC(C)(C)OC(=O)Nc1cccc(Nc2ncc(Cl)c(NCC3CC3)n2)c1` [compound 524], 2.33*.
Still for that read-out and setting: next, `CN(C)C(=O)c1ccc(Nc2ncc(Cl)c(NCC3CC3)n2)cc1` [compound 509]: 1.59*.

Still in this series, the particulars now being: HPLC on reversed-phase C18, method **: 43° C.; mobile phase 0.1% aqueous phosphoric acid and acetonitrile; linear gradient 10% to 95% acetonitrile.
Regarding `O=S(=O)(Cc1ccc(Nc2ncc(Cl)c(NC3CC3)n2)cc1)NC1CC1` [compound 334], the logP is listed as 1.58**.
For `CC(C)(C)NS(=O)(=O)Cc1cccc(Nc2ncc(Cl)c(NC3CC3)n2)c1` [compound 327], the logP is listed as 2.05**.

Staying with this series, now noted: HPLC on reversed-phase C18, method *: 40° C., 0.1% aqueous formic acid and acetonitrile, linear gradient 10% to 95% acetonitrile.
Take `CCCc1ccc(Nc2ncc(Cl)c(NC3CC3)n2)cc1` [compound 953]: the logP is reported as 2.5*.
As to `CSc1ccc(Nc2ncc(Br)c(NC3CC3)n2)cc1Cl` [compound 746], the logP was 3.03*.
Consider `COc1ccc(Nc2ncc(Cl)c(NCC3CC3)n2)cc1` [compound 669], for which the logP is 1.73*.
Still for that read-out and setting: under `CC1COC(=O)N1c1ccc(Nc2ncc(Br)c(NCC3CC3)n2)cc1` (centres unmarked) [compound 118] stands 1.72*; under `OCc1cccc(Nc2ncc(Br)c(NC3CC3)n2)c1` [compound 766], 1.37*; under `Brc1cnc(Nc2ccccc2)nc1NC1(COc2ccccc2)CC1` [compound 932], 3.03*.
Same read-out and setting: under `COc1cccc(Nc2ncc(Cl)c(NCC3CC3)n2)c1` [compound 668] stands 1.97*; under `O=CNc1cccc(Nc2ncc(Br)c(NC3CC3)n2)c1` [compound 716], 1.23*.
Still for that read-out and setting: next, `FC(F)(F)Oc1ccc(Nc2ncc(Cl)c(NCC3CC3)n2)cc1` [compound 688]: 2.95*; `COC(C)c1cccc(Nc2ncc(C(F)(F)F)c(NCC3CC3)n2)c1` (racemic) [compound 962]: 3.29*; `COCc1cccc(Nc2ncc(C(F)(F)F)c(NC3CC3)n2)c1` [compound 721]: 2.78*.
Consider `COC(=O)c1ccc(Nc2ncc(Cl)c(NCC3CC3)n2)cc1Cl` [compound 691], for which the logP is on record as 3.1*.
Same read-out and setting: next, `O=C1OCCN1c1ccc(Nc2ncc(Br)c(NC3CC3)n2)cc1` [compound 175]: 1.37*; `CNS(=O)(=O)Cc1ccc(Nc2ncc(Br)c(NC3CC3)n2)cc1` [compound 757]: 1.51*.
On the same count and under the same terms, next, `CCCCC(=O)Oc1ccc(Nc2ncc(Cl)c(NC3CC3)n2)cc1` [compound 106]: 3.68*; `CC(=O)c1ccc(Nc2ncc(Cl)c(NCC3CC3)n2)cc1` [compound 678]: 2.13*.
Regarding `CC(Cl)c1cccc(Nc2ncc(C(F)(F)F)c(NCC3CC3)n2)c1` (centres unmarked) [compound 703], the logP is recorded as 3.89*.
The same measure, in the same setting: under `O=C(c1ccc(Nc2ncc(Cl)c(NCC3CC3)n2)cc1)N1CCOCC1` [compound 696] stands 1.59*; under `Fc1ccc(F)c(Nc2ncc(Cl)c(NC3CC3)n2)c1` [compound 948], 2.91*; under `CC(Nc1nc(Nc2ccccc2)ncc1Cl)C1CC1` (centres unmarked) [compound 166], 2.14*.
On the same count and under the same terms, under `COC(=O)c1ccc(Nc2ncc(C(F)(F)F)c(NC3CC3)n2)cc1` [compound 971] stands 3.21*.

The same series, now with this note: HPLC on reversed-phase C18, method *: 40° C.; mobile phase 0.1% aqueous formic acid and acetonitrile; linear gradient 10% to 95% acetonitrile.
`CCOc1cccc(Nc2ncc(Cl)c(NC3CC3)n2)c1` [compound 293]: the logP is recorded as 2.06*.
The same measure, in the same setting: under `CCC(=O)c1ccc(Nc2ncc(Br)c(NC3CC3)n2)cc1` [compound 356] stands 2.68*.
The same measure, in the same setting: under `COc1ccccc1Nc1ncc(Cl)c(NC2CC2)n1` [compound 282] stands 1.85*; under `Cc1cccc(C)c1Nc1ncc(Cl)c(NC2CC2)n1` [compound 273], 1.59*; under `CN(C)C(=O)c1ccc(Nc2ncc(Br)c(NC3CC3)n2)cc1` [compound 351], 1.56*.
For the compound `FC(F)Oc1cc(Nc2ncc(Br)c(NC3CC3)n2)ccc1Cl` [compound 311], the logP is listed as 3.44*.

The same series, now with this note: HPLC on reversed-phase C18 column (EEC Directive 79/831 Annex V.A8); method *: 40° C.; 0.1% aqueous formic acid and acetonitrile; linear gradient 10% to 95% acetonitrile.
As to `O=C1CCCN1c1cccc(Nc2ncc(C(F)(F)F)c(NC3CC3)n2)c1` [compound 255], the logP is listed as 2.23*.
Same read-out and setting: next, `CN1C(=O)COc2cc(Nc3ncc(Cl)c(NC4CC4)n3)ccc21` [compound 179]: 1.47*; `O=C(Nc1ccc(Nc2ncc(C(F)(F)F)c(NCC3CC3)n2)cc1)C(F)(F)F` [compound 203]: 2.84*.
On the same count and under the same terms, under `CS(=O)(=O)c1ccc(Nc2ncc(C(F)(F)F)c(NCC3CC3)n2)cc1` [compound 200] stands 2.63*.

The same series, now with this note: HPLC reversed-phase C 18, EEC Directive 79/831 Annex V.A8; method *: 40° C., 0.1% aqueous formic acid and acetonitrile, linear gradient 10% to 95% acetonitrile.
Take `O=[N+]([O-])c1cccc(Nc2ncc(Cl)c(NC3CC3)n2)c1` [compound 788]: the logP is recorded as 2.63*.
On the same count and under the same terms, under `Clc1cnc(Nc2ccccc2)nc1NC1(COc2ccccc2)CC1` [compound 801] stands 2.88*.
Still for that read-out and setting: next, `CC(C)(C)NC(=O)c1cccc(Nc2ncc(Cl)c(NC3CC3)n2)c1` [compound 831]: 2.07*; `O=C1CCCCN1c1cccc(Nc2ncc(F)c(NC3CC3)n2)c1` [compound 804]: 1.16*; `Oc1c(Cl)cc(Nc2ncc(Cl)c(NC3CC3)n2)cc1Cl` [compound 845]: 1.99*.
Same read-out and setting: under `COc1cc(CC#N)ccc1Nc1ncc(Cl)c(NC2CC2)n1` [compound 817] stands 1.82*; under `O=C1COCCN1c1cccc(Nc2ncc(Cl)c(NC3CC3)n2)c1` [compound 791], 1.2*.
For `CSC(C)c1cccc(Nc2ncc(Cl)c(NC3CC3)n2)c1` (centres unmarked) [compound 807], the logP is 2.52*.

Staying with this series, now noted: method **: HPLC reversed-phase C 18, 43° C., 0.1% aqueous phosphoric acid and acetonitrile, linear gradient 10% to 95% acetonitrile.
As for `Brc1cnc(Nc2ccccc2)nc1NC1CC1` [Example 30], the logP is reported as 1.8**.
Still for that read-out and setting: under `CNS(=O)(=O)Cc1ccc(Nc2ncc(Cl)c(NC3CC3)n2)cc1` [Example 48] stands 1.37**; under `O=C1OCCN1c1ccc(Nc2ncc(C(F)(F)F)c(NC3CC3)n2)cc1` [compound 367], 2.04**; under `NS(=O)(=O)c1ccc(Nc2ncc(Cl)c(NC3CC3)n2)cc1` [compound 25], 1.37**.

Staying with this series, now noted: method **: HPLC reversed-phase C 18, temperature 43° C.; mobile phase 0.1% aqueous phosphoric acid and acetonitrile; linear gradient 10% to 95% acetonitrile.
For `Clc1cnc(Nc2cccc(N3CCCC3)c2)nc1NC1CC1` [compound 619], the logP is 2.23**.
Same read-out and setting: under `COc1ccc(Nc2ncc(C(F)(F)F)c(NC3CC3)n2)cc1` [compound 641] stands 2.41**.

The series is the same for the next values; noted with them: method **: HPLC, reversed-phase C 18, 43° C., mobile phase 0.1% aqueous phosphoric acid and acetonitrile, linear gradient from 10% to 95% acetonitrile.
Consider `CC1(C)CC1Nc1nc(Nc2cccc(N3CCOC3=O)c2)ncc1Cl` (centres unmarked) [compound 1035], for which the logP was 1.93**.

The same series, now with this note: method *: HPLC reversed-phase C18, 40° C., 0.1% aqueous formic acid and acetonitrile, linear gradient 10% to 95% acetonitrile.
For `CC(=O)c1ccc(Nc2ncc(Cl)c(NC3CC3)n2)cc1` [compound 44], the logP was 1.99*.
Still for that read-out and setting: next, `O=C1OCCN1c1ccc(Nc2ncc(C(F)(F)F)c(NC3CC3)n2)cc1` [compound 367]: 1.94*;; `CC(C)C(=O)Nc1cccc(Nc2ncc(Cl)c(NC3CC3)n2)c1` [Example 86]: 1.63*.
Still for that read-out and setting: next, `O=C1CCCN1c1ccc(Nc2ncc(Br)c(NC3CC3)n2)cc1` [Example 97]: 1.49*; `CCOC(=O)Nc1cccc(Nc2ncc(Br)c(NC3CC3)n2)c1` [compound 385]: 1.83*; `CC(=O)Nc1ccc(Nc2ncc(Br)c(NC3CC3)n2)cc1Cl` [compound 379]: 1.64*.
For `Clc1cnc(Nc2ccccc2)nc1NC1CC1` [Example 70], the logP was 1.28*.

The series is the same for the next values; noted with them: method *: HPLC reversed-phase C 18, temperature 40° C.; mobile phase 0.1% aqueous formic acid and acetonitrile; linear gradient 10% to 95% acetonitrile.
Consider `CSc1ccc(Nc2ncc(F)c(NC3CC3)n2)cc1Cl` [compound 579], for which the logP is on record as 2.13*.
On the same count and under the same terms, next, `CC(=O)c1cccc(Nc2ncc(C#N)c(NC3CC3)n2)c1` [compound 610]: 2.23*; `COc1cc(Nc2ncc(C(F)(F)F)c(NC3CC3)n2)ccc1F` [compound 635]: 2.99*.
Still for that read-out and setting: under `COc1ccc(Nc2ncc(C(F)(F)F)c(NC3CC3)n2)cc1` [compound 641] stands 2.21*;; under `COc1cc(Nc2ncc(F)c(NC3CC3)n2)ccc1NC(C)=O` [compound 572], 1.17*.

The same series, now with this note: method *: HPLC, reversed-phase C 18, 40° C., mobile phase 0.1% aqueous formic acid and acetonitrile, linear gradient from 10% to 95% acetonitrile.
For the compound `CCc1cccc(Nc2ncc(Cl)c(N(C)C3CC3)n2)c1` [compound 1058], the logP is given as 3.65*.
On the same count and under the same terms, under `O=C(c1cccc(Nc2ncc(Cl)c(NC3CC3)n2)c1)N1CCC1` [compound 1063] stands 1.43*; under `CC1(C)CC1Nc1nc(Nc2cccc(N3CCOC3=O)c2)ncc1Cl` (centres unmarked) [compound 1035], 1.93*;; under `CC(C)Oc1ccc(Nc2ncc(Cl)c(NC3CC3)n2)cc1OC(C)C` [compound 992], 2.42*.
Still for that read-out and setting: under `CCCCSc1cccc(Nc2ncc(Cl)c(NC3CC3)n2)c1` [compound 1054] stands 3.78*; under `CCCCCc1ccc(Nc2ncc(Cl)c(NC3CC3)n2)cc1` [compound 1048], 3.55*.
The same measure, in the same setting: under `Clc1cnc(Nc2cccc(C3CCCC3)c2)nc1NC1CC1` [compound 1066] stands 3.18*.
